Patent US10898469B2, “Imidazolylamide derivative” (Sumitomo Dainippon Pharma Co., Ltd., priority 2016, dated 2021)
Like-named read-outs stand apart in the source and are kept apart here.

Key:
Type in all cases: cell-based, human
[1] = test system: FaDu cells; experiment: Inhibition test for sphere-forming ability of cancer cells (Test Example 1), FaDu; details: for IC50: read-out: IC50 (μmol/L) FaDu (Sphere IC50 value); for (100%-inhibition rate of cell proliferation) at 1 μmol/L, FaDu: value with %
Description: (§1) The reliable methods established for measuring the self-renewal ability of cells which is one of the CSC's properties include a method for measuring the sphere-forming ability of cancer cells in non-adherent condition in the absence of serum (Cancer Res 65, 5506-5511 (2005)). Human colorectal cancer-derived HCT-116 cells, human colon-adenocarcinoma-derived HT-29 cells, and human pharyngeal cancer-derived FaDu cells were available from American Type Culture Collection (ATCC). HCT-116 cells and HT-29 cells were cultured at 37° C. under 5% CO2 using the McCoy's 5a medium containing 10% fetal bovine serum (FBS) and 1% penicillin/streptomycin, and FaDu cells were cultured at 37° C. under 5% CO2 using the MEM medium containing 10% FBS, 1% non-essential amino acid, 1% sodium pyruvate, and 1% penicillin/streptomycin. HCT-116 cells, HT-29 cells, and FaDu cells were seeded in a 384 Well Black Clear Bottom Ultra-Low Attachment Microplate (Corning Cat. No. 3827) in an amount of 350-800 cells/well using the DMEM/F12 medium containing 2% B27 supplement (GIBCO), 20 ng/mL epidermal growth factor (EGF) (peprotech), 10 ng/mL basic fibroblast growth factor (bFGF) (peprotech), 5 μg/mL insulin (Sigma), and 1% penicillin/streptomycin. Each test compound was added into each well to adjust the final concentration of DMSO to 0.1%, and the cells were cultured for 4 days. The number of viable cells in each well was then measured with CellTiter-Glo® Luminescent Cell Viability Assay (Promega) to calculate the concentration of each test compound for 50% inhibition of cell proliferation (Sphere IC50 value; μmol/L).
(§2) The experiment of Test Example 1 was performed for each compound of each Example. The concentration of each test compound for 50% inhibition of cell proliferation (Sphere IC50 value; μmol/L) is shown in the following Table.

[2] = test system: HT-29 cells; experiment: Inhibition test for sphere-forming ability of cancer cells (Test Example 1), HT-29; details: for IC50: read-out: IC50 (μmol/L) HT-29 (Sphere IC50 value); for (100%-inhibition rate of cell proliferation) at 1 μmol/L, HT-29: value with %
Description: as §1, §2

[3] = test system: HCT-116 cells; experiment: Inhibition test for sphere-forming ability of cancer cells (Test Example 1), HCT-116; details: for IC50: read-out: IC50 (μmol/L) HCT-116 (Sphere IC50 value); for inhibitory effect on the sphere-forming ability of cancer cells: Test Example 1, summary in words, cell line not given (HCT-116, HT-29, FaDu tested); for (100%-inhibition rate of cell proliferation) at 1 μmol/L, HCT-116: value with %
Description: as §1, §2

[4] = concentration for 50% inhibition of cell proliferation
[5] = HCT-116 cells, concentration for 50% inhibition of cell proliferation
[6] = Homo sapiens, concentration for 50% inhibition of cell proliferation
[7] = Homo sapiens, HCT-116 cells, concentration for 50% inhibition of cell proliferation

SMILES: O=C(/C=C/c1cccc(Cl)c1)Nc1cn(Cc2cccc(Cl)c2)cn1 [Example 58]
- IC50 [1, 4]: 6.52 µmol/L
- IC50 [2, 4]: 4.89 µmol/L
- IC50 [3, 5]: 6.99 µmol/L

SMILES: O=C(Nc1cn(Cc2cccc(Cl)c2)cn1)c1ccc(OCc2ccccc2)nc1 [Example 206]
- IC50 [1, 4]: 0.09 µmol/L
- IC50 [2, 4]: 0.09 µmol/L
- IC50 [3, 5]: 0.69 µmol/L
- inhibitory effect on the sphere-forming ability of cancer cells [3]: particularly potent inhibitory effect

SMILES: O=C(/C=C/c1cccc(Br)c1)Nc1cn(Cc2cccc(Cl)c2)cn1 [Example 56]
- IC50 [1, 4]: 4.5 µmol/L
- IC50 [2, 4]: 6.62 µmol/L
- IC50 [3, 5]: 5.74 µmol/L

SMILES: Cc1cccc(/C=C/C(=O)Nc2cn(Cc3cccc(OC(F)(F)F)c3)cn2)c1 [Example 110]
- IC50 [1, 6]: 1.92 µmol/L
- IC50 [2, 6]: 5.67 µmol/L
- IC50 [3, 7]: 7.21 µmol/L

SMILES: CC(=O)Nc1ccc(/C=C/C(=O)Nc2cn(Cc3cccc(Cl)c3)cn2)cn1 [Example 20, (E)-3-(6-Acetylaminopyridin-3-yl)-N-(1-(3-chlorobenzyl)-1H-imidazol-4-yl)acrylamide]
- IC50 [1, 6]: 0.06 µmol/L
- IC50 [2, 6]: 0.01 µmol/L
- IC50 [3, 7]: 0.45 µmol/L

SMILES: O=C(Nc1cn(Cc2cccc(Cl)c2)cn1)c1ccc(-n2cccn2)nc1 [Example 196]
- IC50 [1, 4]: 0.89 µmol/L
- IC50 [2, 4]: 3.78 µmol/L
- IC50 [3, 5]: 0.76 µmol/L

SMILES: O=C(/C=C/c1cccs1)Nc1cn(Cc2cccc(Cl)c2)cn1 [Example 94]
- IC50 [1, 4]: 4.57 µmol/L
- IC50 [2, 4]: 0.97 µmol/L
- IC50 [3, 5]: 7.88 µmol/L

SMILES: O=C(/C=C/c1ccc(O)c(F)c1)Nc1cn(Cc2cccc(Cl)c2)cn1 [Example 81]
- IC50 [1, 4]: 0.76 µmol/L
- IC50 [2, 4]: 6.12 µmol/L
- IC50 [3, 5]: 3.82 µmol/L

SMILES: COc1ccc(C(=O)Nc2cn(Cc3cc(Cl)nc(Cl)c3)cn2)cc1OC [Example 170]
- (100%-inhibition rate of cell proliferation) at 1 μmol/L, FaDu [1]: 27.1%
- (100%-inhibition rate of cell proliferation) at 1 μmol/L, HT-29 [2]: 24.9%
- (100%-inhibition rate of cell proliferation) at 1 μmol/L, HCT-116 ([3]; HCT-116 cells): 33.8%

SMILES: COc1cc(/C=C/C(=O)Nc2cn(Cc3cccc(Cl)c3)cn2)cc(OC)c1 [Example 85]
- IC50 (μmol/L) FaDu (Sphere IC50 value) [1, 4]: 13.73 µmol/L
- IC50 (μmol/L) HT-29 (Sphere IC50 value) [2, 4]: 25.90 µmol/L
- IC50 (μmol/L) HCT-116 (Sphere IC50 value) [3, 5]: 17.96 µmol/L

SMILES: COc1ccc(C(=O)Nc2cn(Cc3cccc(OC(F)(F)F)c3)cn2)cc1OC [Example 166]
- (100%-inhibition rate of cell proliferation) at 1 μmol/L, FaDu [1]: 23.8%
- (100%-inhibition rate of cell proliferation) at 1 μmol/L, HT-29 [2]: 33.0%
- (100%-inhibition rate of cell proliferation) at 1 μmol/L, HCT-116 ([3]; HCT-116 cells): 36.8%

SMILES: O=C(/C=C/c1ccccn1)Nc1cn(Cc2cccc(Cl)c2)cn1 [Example 98]
- IC50 [1, 4]: 7.75 µmol/L
- IC50 [2, 4]: 7.58 µmol/L
- IC50 [3, 5]: > 10 µmol/L

SMILES: CCOc1ccc(/C=C/C(=O)Nc2cn(Cc3cccc(Cl)c3)cn2)cn1 [Example 1, (E)-N-(1-(3-Chlorobenzyl)-1H-imidazol-4-yl)-3-(6-ethoxypyridin-3-yl)acrylamide]
- IC50 [1, 6]: 0.05 µmol/L
- IC50 [2, 6]: 0.02 µmol/L
- IC50 [3, 7]: 0.32 µmol/L

SMILES: O=C(/C=C/c1cncc(F)c1)Nc1cn(Cc2cccc(Cl)c2)cn1 [Example 42, (E)-N-(1-(3-Chlorobenzyl)-1H-imidazol-4-yl)-3-(5-fluoropyridin-3-yl)acrylamide]
- IC50 [1, 6]: 5.77 µmol/L
- IC50 [2, 6]: 0.7 µmol/L
- IC50 [3, 7]: 0.96 µmol/L

SMILES: COc1ccc(C(=O)Nc2cn(Cc3cccc(Cl)c3)cn2)cn1 [Example 202]
- IC50 [1, 4]: 6.87 µmol/L
- IC50 [2, 4]: 5.68 µmol/L
- IC50 [3, 5]: 0.96 µmol/L

SMILES: COc1ccc(Cn2cnc(NC(=O)c3ccc(OC)c(OC)c3)c2)cc1 [Example 164]
- (100%-inhibition rate of cell proliferation) at 1 μmol/L, FaDu [1]: 92.3%
- (100%-inhibition rate of cell proliferation) at 1 μmol/L, HT-29 [2]: 89.0%
- (100%-inhibition rate of cell proliferation) at 1 μmol/L, HCT-116 ([3]; HCT-116 cells): 37.4%

SMILES: COc1ccc(C(=O)Nc2cn(Cc3ccc(C(F)(F)F)o3)cn2)cc1OC [Example 171]
- (100%-inhibition rate of cell proliferation) at 1 μmol/L, FaDu [1]: 29.6%
- (100%-inhibition rate of cell proliferation) at 1 μmol/L, HT-29 [2]: 33.8%
- (100%-inhibition rate of cell proliferation) at 1 μmol/L, HCT-116 ([3]; HCT-116 cells): 36.4%

SMILES: O=C(Nc1cn(Cc2cccc(OC(F)(F)F)c2)cn1)c1ccc(OCC(F)(F)F)nc1 [Example 222]
- IC50 [1, 4]: 9.74 µmol/L
- IC50 [2, 4]: 4.81 µmol/L
- IC50 [3, 5]: > 10 µmol/L

SMILES: COc1ccc(C(=O)Nc2cn(Cc3cccc(OC(F)(F)F)c3)cn2)cn1 [Example 212]
- IC50 [1, 4]: 0.84 µmol/L
- IC50 [2, 4]: 0.99 µmol/L
- IC50 [3, 5]: 0.78 µmol/L

SMILES: Cc1ccc(F)c(Cn2cnc(NC(=O)/C=C/c3cccc(Oc4ccccc4)c3)c2)c1F [Example 114]
- IC50 [1, 6]: 0.72 µmol/L
- IC50 [2, 6]: 0.69 µmol/L
- IC50 [3, 7]: 0.62 µmol/L

SMILES: O=C(Nc1cn(Cc2cccc(C(F)(F)F)c2)cn1)c1ccc(F)nc1 [Example 226]
- (100%-inhibition rate of cell proliferation) at 1 μmol/L, FaDu [1]: 87.9%
- (100%-inhibition rate of cell proliferation) at 1 μmol/L, HT-29 [2]: 91.7%
- (100%-inhibition rate of cell proliferation) at 1 μmol/L, HCT-116 ([3]; HCT-116 cells): 45.7%

SMILES: COc1ccc(/C=C/C(=O)Nc2cn(Cc3cccc(Cl)c3)cn2)cc1 [Example 118, (E)-N-(1-(3-Chlorobenzyl)-1H-imidazol-4-yl)-3-(4-methoxyphenyl)acrylamide]
- IC50 [1, 6]: 0.07 µmol/L
- IC50 [2, 6]: < 0.01 µmol/L
- IC50 [3, 7]: 0.1 µmol/L
- inhibitory effect on the sphere-forming ability of cancer cells [3]: particularly potent inhibitory effect

SMILES: COc1ccc(C(=O)Nc2cn(Cc3cccc(OCc4ccccc4)c3)cn2)cc1OC [Example 169]
- (100%-inhibition rate of cell proliferation) at 1 μmol/L, FaDu [1]: 68.6%
- (100%-inhibition rate of cell proliferation) at 1 μmol/L, HT-29 [2]: 35.4%
- (100%-inhibition rate of cell proliferation) at 1 μmol/L, HCT-116 ([3]; HCT-116 cells): 50.9%

SMILES: COc1ccc(C(=O)Nc2cn(Cc3c(F)ccc(C)c3F)cn2)cn1 [Example 216]
- IC50 [1, 4]: 0.09 µmol/L
- IC50 [2, 4]: 0.07 µmol/L
- IC50 [3, 5]: 0.08 µmol/L
- inhibitory effect on the sphere-forming ability of cancer cells [3]: particularly potent inhibitory effect

SMILES: COc1ccc(OC)c(/C=C/C(=O)Nc2cn(Cc3cccc(Cl)c3)cn2)c1 [Example 53]
- IC50 [1, 4]: 0.87 µmol/L
- IC50 [2, 4]: 0.84 µmol/L
- IC50 [3, 5]: 0.87 µmol/L

SMILES: O=C(/C=C/c1ccc(Cl)c(Cl)c1)Nc1cn(Cc2cccc(Cl)c2)cn1 [Example 59]
- IC50 [1, 4]: 0.86 µmol/L
- IC50 [2, 4]: 0.79 µmol/L
- IC50 [3, 5]: 7.78 µmol/L

SMILES: COc1ccc(/C=C/C(=O)Nc2cn(Cc3cccc(Cl)c3)cn2)cc1OCC(N)=O [Example 30]
- IC50 [1, 6]: 0.71 µmol/L
- IC50 [2, 6]: > 10 µmol/L
- IC50 [3, 7]: > 10 µmol/L

SMILES: CCNC(=O)c1ccc(/C=C/C(=O)Nc2cn(Cc3cccc(Cl)c3)cn2)cn1 [Example 26, (E)-5-(3-((1-(3-Chlorobenzyl)-1H-imidazol-4-yl)amino)-3-oxoprop-1-en-1-yl)-N-ethylpicolinamide]
- IC50 [1, 6]: 5.49 µmol/L
- IC50 [2, 6]: 5.83 µmol/L
- IC50 [3, 7]: > 10 µmol/L

SMILES: Cc1ccncc1/C=C/C(=O)Nc1cn(Cc2cccc(Cl)c2)cn1 [Example 91]
- IC50 [1, 4]: 6.15 µmol/L
- IC50 [2, 4]: 4.5 µmol/L
- IC50 [3, 5]: 7.51 µmol/L

SMILES: Cc1ccc(C(=O)Nc2cn(Cc3cccc(Cl)c3)cn2)cn1 [Example 198]
- (100%-inhibition rate of cell proliferation) at 1 μmol/L, FaDu [1]: 64.5%
- (100%-inhibition rate of cell proliferation) at 1 μmol/L, HT-29 [2]: 99.8%
- (100%-inhibition rate of cell proliferation) at 1 μmol/L, HCT-116 ([3]; HCT-116 cells): 55.3%

SMILES: Cc1ccccc1/C=C/C(=O)Nc1cn(Cc2cccc(Cl)c2)cn1 [Example 72]
- IC50 [1, 4]: 0.29 µmol/L
- IC50 [2, 4]: 0.09 µmol/L
- IC50 [3, 5]: 4.42 µmol/L

SMILES: O=C(Nc1cn(Cc2cccc(Cl)c2)cn1)c1ccc(OCC(F)(F)F)nc1 [Example 219]
- IC50 [1, 4]: 9.4 µmol/L
- IC50 [2, 4]: 8.34 µmol/L
- IC50 [3, 5]: 0.92 µmol/L
